For this experiment, the system named is L1210 leukemia ip in BDF1 mice, survival T/C. As to the kind of experiment: NCI In Vivo Anticancer Drug Screen. Data for tumor model L1210 Leukemia (intraperitoneal) in B6D2F1 (BDF1) mice. Conditions: endpoint: mean survival time, higher = longer survival. Put shortly:
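Mice bearing the transplanted tumor received compound or vehicle. Survival of the treated group was divided by that of the vehicle-treated control group to give the ratio.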

Where [1] appears, read: dose: 6.25 mg/kg/injection, schedule: Q01DX009 (ip), vehicle: saline with Tween-80.
The mark [2] stands for this setting: dose: 12.5 mg/kg/injection, schedule: Q01DX009 (ip), vehicle: saline with Tween-80.
[3] abbreviates: dose: 25.0 mg/kg/injection, schedule: Q01DX009 (ip), vehicle: saline with Tween-80.
[4] abbreviates: dose: 50.0 mg/kg/injection, schedule: Q01DX009 (ip), vehicle: saline with Tween-80.
Where [5] appears, read: dose: 100.0 mg/kg/injection, schedule: Q01DX009 (ip), vehicle: Klucel (hydroxypropylcellulose) (HPC).
Where [6] appears, read: dose: 200.0 mg/kg/injection, schedule: Q01DX009 (ip), vehicle: Klucel (hydroxypropylcellulose) (HPC).
Setting [7] is: dose: 200.0 mg/kg/injection, schedule: Q04DX003 (ip), vehicle: Klucel (hydroxypropylcellulose) (HPC).
Where [8] appears, read: dose: 400.0 mg/kg/injection, schedule: Q01DX009 (ip), vehicle: Klucel (hydroxypropylcellulose) (HPC).
The mark [9] stands for this setting: dose: 400.0 mg/kg/injection, schedule: Q04DX003 (ip), vehicle: Klucel (hydroxypropylcellulose) (HPC).
[10] abbreviates: dose: 100.0 mg/kg/injection, schedule: Q01DX001 (ip), vehicle: carboxymethylcellulose (CMC).
Setting [11] is: dose: 100.0 mg/kg/injection, schedule: Q01DX001 (ip), vehicle: saline.
The mark [12] stands for this setting: dose: 100.0 mg/kg/injection, schedule: Q04DX003 (ip), vehicle: saline with Tween-80.
Setting [13] is: dose: 200.0 mg/kg/injection, schedule: Q01DX001 (ip), vehicle: carboxymethylcellulose (CMC).
Where [14] appears, read: dose: 200.0 mg/kg/injection, schedule: Q04DX003 (ip), vehicle: saline with Tween-80.
Where [15] appears, read: dose: 200.0 mg/kg/injection, schedule: Q01DX001 (ip), vehicle: saline.
Setting [16] is: dose: 400.0 mg/kg/injection, schedule: Q01DX001 (ip), vehicle: saline.

Values joined by “and” are separate entries in the source; they are usually repeats but may differ in a detail not shown here. Equal values may be shown once. Toxic doses and inconclusive results are not listed.

T/C data for 21 compounds are collected here from PubChem BioAssay AID248 (DTP/NCI, 2004).

With `C=Cc1c(C)c(O)cc2c1-c1ccc(O)c(C)c1CC2`, the T/C is 102 % of control under setting [1], 102 % of control under setting [2], 98 % of control under setting [3] and 91 % of control under setting [4].
`O=C(OCC(OC(=O)c1ccccc1)C(OC(=O)c1ccccc1)C(OC(=O)c1ccccc1)C(OC(=O)c1ccccc1)c1cnn(-c2ccccc2)n1)c1ccccc1` (stereo not drawn): the T/C reads like this: (dose: 100.0 mg/kg/injection, schedule: Q04DX003 (ip), vehicle: acetone) 87 % of control; (dose: 200.0 mg/kg/injection, schedule: Q04DX003 (ip), vehicle: acetone) 100 % of control; (dose: 400.0 mg/kg/injection, schedule: Q04DX003 (ip), vehicle: acetone) 90 % of control.
Turning to `NC(=S)SCCC(=O)O`, the T/C reads like this: under setting [5], 96 % of control; under setting [6], 100 % of control; under setting [7], 93 % of control; under setting [8], 94 % of control; under setting [9], 92 % of control.
As to `Oc1c(I)cc(I)c2cccnc12`, the T/C (dose: 100.0 mg/kg/injection, schedule: Q01DX001 (ip), vehicle: Klucel (hydroxypropylcellulose) (HPC)) was 102 % of control and the T/C (dose: 200.0 mg/kg/injection, schedule: Q01DX001 (ip), vehicle: Klucel (hydroxypropylcellulose) (HPC)) is 106 % of control.
Turning to `Nc1ncnc2c(C3OC(CO)C(O)C3O)[nH]nc12` (stereo not drawn), the T/C is 95 % of control (dose: 5.0 mg/kg/injection, schedule: Q01DX015 (ip), vehicle: carboxymethylcellulose (CMC)); 109 % of control (dose: 10.0 mg/kg/injection, schedule: Q01DX015 (ip), vehicle: carboxymethylcellulose (CMC)); 119 % of control under setting [2]; 111 % of control (dose: 20.0 mg/kg/injection, schedule: Q01DX015 (ip), vehicle: carboxymethylcellulose (CMC)); 98 % of control under setting [3]; 109 % of control (dose: 50.0 mg/kg/injection, schedule: Q01DX001 (ip), vehicle: carboxymethylcellulose (CMC)). The T/C reads like this: under setting [10], 111 % of control; under setting [11], 108 % of control; under setting [12], 114 % of control; (dose: 133.0 mg/kg/injection, schedule: Q04DX003 (ip), vehicle: saline with Tween-80) 100 % of control and 117 % of control; under setting [13], 115 % of control; under setting [14], 111 % of control. In addition, where the note is “dose: 300.0 mg/kg/injection, schedule: Q04DX003 (ip), vehicle: saline with Tween-80”, the T/C was 88 % of control.
Take `CC(=O)c1cc(C)c(C)cc1C`: the T/C under setting [10] is 100 % of control; the T/C under setting [13] was 94 % of control; the T/C (dose: 400.0 mg/kg/injection, schedule: Q01DX001 (ip), vehicle: carboxymethylcellulose (CMC)) is 97 % of control.
For `N#CC12CCC(c3ccccc31)c1ccccc12`, the T/C is 99 % of control (dose: 100.0 mg/kg/injection, schedule: Q04DX002 (ip), vehicle: gum acacia); 101 % of control (dose: 200.0 mg/kg/injection, schedule: Q04DX002 (ip), vehicle: gum acacia); 92 % of control (dose: 400.0 mg/kg/injection, schedule: Q04DX002 (ip), vehicle: gum acacia).
Regarding `COC1=[C]([Hg][Br])C(OC)OC1OC` (stereo not drawn), the T/C runs as follows: (dose: 5.0 mg/kg/injection, schedule: Q01DX009 (ip), vehicle: saline with Tween-80) 89 % of control; (dose: 10.0 mg/kg/injection, schedule: Q01DX009 (ip), vehicle: saline with Tween-80) 95 % of control.
With `O=C1OCCC1[P+](c1ccccc1)(c1ccccc1)c1ccccc1` (stereo not drawn), the T/C under setting [11] is 88 % of control.
`CC(C)c1cc(C(C)C)c(S(=O)(=O)C2CC2c2ccccc2)c(C(C)C)c1` (stereo not drawn): the T/C was 112 % of control under setting [11], 93 % of control under setting [15] and 91 % of control under setting [16].
With `CSCCNC(=O)CS(=O)(=O)c1ccc(C)cc1`, the T/C under setting [12] is 100 % of control; the T/C under setting [14] was 100 % of control; the T/C (dose: 400.0 mg/kg/injection, schedule: Q04DX003 (ip), vehicle: saline with Tween-80) was 92 % of control.
On to `Cc1ccc(-c2nc(-c3nccc4ccccc34)oc2-c2ccccc2)cc1`, for which the T/C is 103 % of control under setting [5], 95 % of control under setting [6] and 95 % of control under setting [8].
In the case of `NC(=O)/C=C/C(=O)O` (tested in a mixture with another compound), the T/C (dose: 31.25 mg/kg/injection, schedule: Q#A X Z (ip), vehicle: saline) is 118 % of control; the T/C (dose: 62.5 mg/kg/injection, schedule: Q#A X Z (ip), vehicle: saline) was 119 % of control; the T/C (dose: 125.0 mg/kg/injection, schedule: Q#A X Z (ip), vehicle: saline) is 100 % of control; the T/C (dose: 125.0 mg/kg/injection, schedule: Q#A X Z (oral), vehicle: saline) is 102 % of control; the T/C (dose: 250.0 mg/kg/injection, schedule: Q#A X Z (oral), vehicle: saline) was 100 % of control; the T/C (dose: 500.0 mg/kg/injection, schedule: Q#A X Z (oral), vehicle: saline) is 102 % of control. Where the note is “dose: 1000.0 mg/kg/injection, schedule: Q#A X Z (oral), vehicle: saline”, the T/C is 102 % of control.
Turning to `CCOC(=O)C(Cc1c[nH]c2cc(N(CCO)CCO)ccc12)(NC(C)=O)C(=O)OCC`, the T/C is 97 % of control under setting [11], 101 % of control under setting [15] and 98 % of control under setting [16].
For the compound `S=C=NCc1cccc(CN=C=S)c1`, under setting [1], the T/C is 103 % of control.
As to `Cc1cccc2nc(-c3ccccc3)ccc12`, the T/C by setting is: (dose: 6.0 mg/kg/injection, schedule: Q01DX009 (ip), vehicle: other) 100 % of control; (dose: 12.0 mg/kg/injection, schedule: Q01DX009 (ip), vehicle: other) 92 % of control; (dose: 12.0 mg/kg/injection, schedule: Q04DX003 (ip), vehicle: saline) 92 % of control; (dose: 25.0 mg/kg/injection, schedule: Q01DX009 (ip), vehicle: other) 94 % of control; (dose: 25.0 mg/kg/injection, schedule: Q04DX003 (ip), vehicle: saline) 98 % of control.
Consider `CCCCOC(=O)CNC(=O)N(CC)C(=NCC)c1ccc(NC(=O)c2ccc(C(=O)Nc3ccc(C(=NCC)N(CC)C(=O)NCC(=O)OCCCC)cc3)cc2)cc1`, for which the T/C by setting is: (dose: 1.87 mg/kg/injection, schedule: Q01DX015 (ip), vehicle: methylcellulose (MC)) 106 % of control; (dose: 7.5 mg/kg/injection, schedule: Q01DX015 (ip), vehicle: methylcellulose (MC)) 162 % of control and 189 % of control; (dose: 15.0 mg/kg/injection, schedule: Q01DX015 (ip), vehicle: methylcellulose (MC)) 121 % of control.
For the compound `O=Cc1c[nH]c2ccccc12`, the T/C by setting is: under setting [11], 104 % of control; under setting [5], 103 % of control; (dose: 100.0 mg/kg/injection, schedule: Q04DX003 (ip), vehicle: Klucel (hydroxypropylcellulose) (HPC)) 110 % of control; under setting [15], 98 % of control; under setting [6], 102 % of control; under setting [7], 105 % of control. For the same compound, the T/C reads like this: under setting [16], 97 % of control; under setting [8], 107 % of control; under setting [9], 98 % of control.
For `CCC1C2CC3C4N(C)c5ccccc5C45CC(C2C5O)N3C1O` (stereo not drawn), the T/C reads like this: under setting [4], 100 % of control; (dose: 100.0 mg/kg/injection, schedule: Q01DX009 (ip), vehicle: saline with Tween-80) 103 % of control.
`CC(=O)Nc1ccc2cnn(C(C)=O)c2c1`: the T/C was 94 % of control (dose: 50.0 mg/kg/injection, schedule: Q01DX009 (ip), vehicle: water); 98 % of control (dose: 100.0 mg/kg/injection, schedule: Q01DX009 (ip), vehicle: water); 104 % of control (dose: 100.0 mg/kg/injection, schedule: Q04DX003 (ip), vehicle: water); 100 % of control (dose: 200.0 mg/kg/injection, schedule: Q01DX009 (ip), vehicle: water); 94 % of control (dose: 200.0 mg/kg/injection, schedule: Q04DX003 (ip), vehicle: water); 106 % of control (dose: 400.0 mg/kg/injection, schedule: Q04DX003 (ip), vehicle: water).
In the case of `Nc1c(Cl)ncn2[nH]c(=O)nc12`, the T/C runs as follows: under setting [10], 96 % of control; under setting [13], 100 % of control.
